Results published in PubChem BioAssay (NCI).
Several values for one entry are separate records, joined by “and”; a condition that tells them apart may be missing. Equal values may be shown once.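 1) Cells in 96-well plates. 2) Compound, 48 h, 5 concentrations. 3) Linear interpolation between surrounding doses. 4) Unreached endpoint = highest concentration. GI50 marks 50% less growth. Definition used: TGI = concentration required for complete inhibition of growth.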

Legend:
Test in all cases: growth of human tumour cells (NCI), 48 h
OVCAR-3 ovarian = system: OVCAR-3 ovarian
MCF7 breast = system: MCF7 breast
RXF 393 renal = system: RXF 393 renal
HOP-92 NSCLC = system: HOP-92 NSCLC
OVCAR-8 ovarian = system: OVCAR-8 ovarian
SK-MEL-2 melanoma = system: SK-MEL-2 melanoma
NCI/ADR-RES ovarian = system: NCI/ADR-RES ovarian
HL-60(TB) leukemia = system: HL-60(TB) leukemia
ACHN renal = system: ACHN renal
HS 578T breast = system: HS 578T breast
DU-145 prostate = system: DU-145 prostate
HCT-116 colon = system: HCT-116 colon
NCI-H522 lung = system: NCI-H522 lung
MOLT-4 leukemia = system: MOLT-4 leukemia
SF-539 CNS = system: SF-539 CNS
SK-MEL-5 melanoma = system: SK-MEL-5 melanoma
T-47D breast = system: T-47D breast
UACC-62 melanoma = system: UACC-62 melanoma
MDA-N = system: MDA-N
U251 CNS = system: U251 CNS
OVCAR-4 ovarian = system: OVCAR-4 ovarian
SF-268 CNS = system: SF-268 CNS
NCI-H226 lung = system: NCI-H226 lung
BT-549 breast = system: BT-549 breast
UO-31 renal = system: UO-31 renal
SK-MEL-28 melanoma = system: SK-MEL-28 melanoma
SR leukemia = system: SR leukemia
HCC-2998 colon = system: HCC-2998 colon
HCT-15 colon = system: HCT-15 colon
TK-10 renal = system: TK-10 renal
MDA-MB-435 = system: MDA-MB-435
SK-OV-3 ovarian = system: SK-OV-3 ovarian
IGROV1 ovarian = system: IGROV1 ovarian
HT29 colon = system: HT29 colon
CAKI-1 renal = system: CAKI-1 renal
A498 renal = system: A498 renal
NCI-H460 lung = system: NCI-H460 lung
MALME-3M melanoma = system: MALME-3M melanoma
SN12C renal = system: SN12C renal
COLO 205 colon = system: COLO 205 colon
EKVX NSCLC = system: EKVX NSCLC
A549 NSCLC = system: A549 NSCLC
UACC-257 melanoma = system: UACC-257 melanoma
OVCAR-5 ovarian = system: OVCAR-5 ovarian
RPMI-8226 leukemia = system: RPMI-8226 leukemia
SF-295 CNS = system: SF-295 CNS
SNB-75 CNS = system: SNB-75 CNS
HOP-62 NSCLC = system: HOP-62 NSCLC
CCRF-CEM leukemia = system: CCRF-CEM leukemia
K-562 leukemia = system: K-562 leukemia
PC-3 prostate = system: PC-3 prostate
786-0 renal = system: 786-0 renal
SNB-19 CNS = system: SNB-19 CNS
LOX IMVI melanoma = system: LOX IMVI melanoma
NCI-H23 lung = system: NCI-H23 lung
MDA-MB-231 breast = system: MDA-MB-231 breast
SW-620 colon = system: SW-620 colon
M14 melanoma = system: M14 melanoma
KM12 colon = system: KM12 colon

Q: How did the TGI (OVCAR-3 ovarian) turn out when `COc1cc(CC(C)C(C)Cc2ccc(O)c(OC)c2)ccc1O` (stereo unspecified) was run?
A: Its TGI is 50 µM and 32.5 µM.

Q: And the TGI (MCF7 breast)?
A: The TGI was 38 µM.

Q: What about the GI50 (RXF 393 renal) of the same molecule?
A: The GI50 was 17.7 µM.

Q: And the TGI (RXF 393 renal)?
A: Its TGI is 42.7 µM and 35.4 µM.

Q: And the GI50 (HOP-92 NSCLC)?
A: The GI50 was 14.5 µM.

Q: What about the TGI (HOP-92 NSCLC) of the same molecule?
A: Its TGI is 27.6 µM and 30.2 µM.

Q: What about the TGI (OVCAR-8 ovarian) of the same molecule?
A: Its TGI is 50 µM and 41 µM.

Q: What about the TGI (SK-MEL-2 melanoma) of the same molecule?
A: Its TGI is 25 µM.

Q: And the TGI (NCI/ADR-RES ovarian)?
A: Its TGI is 50 µM and 41.6 µM.

Q: And the GI50 (HL-60(TB) leukemia)?
A: The GI50 was 0.0179 µM.

Q: What about the TGI (ACHN renal) of the same molecule?
A: The TGI was 37.9 µM and 28.2 µM.

Q: And the GI50 (HS 578T breast)?
A: Its GI50 is 20 µM.

Q: What about the TGI (HS 578T breast) of the same molecule?
A: Its TGI is 22.7 µM and 49.8 µM.

Q: And the GI50 (DU-145 prostate)?
A: The GI50 was 17 µM.

Q: And the TGI (DU-145 prostate)?
A: Its TGI is 50 µM and 30.6 µM.

Q: What about the GI50 (HCT-116 colon) of the same molecule?
A: The GI50 was 14.6 µM.

Q: And the TGI (HCT-116 colon)?
A: Its TGI is 50 µM and 27.7 µM.

Q: And the GI50 (NCI-H522 lung)?
A: Its GI50 is 16.2 µM.

Q: And the TGI (NCI-H522 lung)?
A: The TGI was 21.4 µM and 33.5 µM.

Q: And the GI50 (MOLT-4 leukemia)?
A: The GI50 was 1.39 µM.

Q: And the TGI (MOLT-4 leukemia)?
A: Its TGI is 22 µM and 13 µM.

Q: What about the GI50 (SF-539 CNS) of the same molecule?
A: The GI50 was 17 µM.

Q: What about the TGI (SF-539 CNS) of the same molecule?
A: Its TGI is 50 µM and 31.6 µM.

Q: And the GI50 (SK-MEL-5 melanoma)?
A: Its GI50 is 14.9 µM.

Q: What about the TGI (SK-MEL-5 melanoma) of the same molecule?
A: The TGI was 16.5 µM and 28.1 µM.

Q: And the GI50 (T-47D breast)?
A: Its GI50 is 21.9 µM.

Q: What about the TGI (T-47D breast) of the same molecule?
A: Its TGI is 50 µM and 50.6 µM.

Q: And the GI50 (UACC-62 melanoma)?
A: The GI50 was 14.4 µM.

Q: What about the TGI (UACC-62 melanoma) of the same molecule?
A: The TGI was 50 µM and 27.6 µM.

Q: What about the GI50 (MDA-N) of the same molecule?
A: Its GI50 is 13.7 µM.

Q: What about the TGI (MDA-N) of the same molecule?
A: Its TGI is 50 µM and 26.6 µM.

Q: What about the TGI (U251 CNS) of the same molecule?
A: The TGI was 50 µM.

Q: What about the GI50 (OVCAR-4 ovarian) of the same molecule?
A: Its GI50 is 17.3 µM.

Q: And the TGI (OVCAR-4 ovarian)?
A: The TGI was 50 µM and 41.2 µM.

Q: And the TGI (SF-268 CNS)?
A: The TGI was 50 µM and 34.7 µM.

Q: And the GI50 (NCI-H226 lung)?
A: The GI50 was 16.8 µM.

Q: What about the TGI (NCI-H226 lung) of the same molecule?
A: The TGI was 40.7 µM and 33.2 µM.

Q: What about the TGI (BT-549 breast) of the same molecule?
A: Its TGI is 50 µM and 31.4 µM.

Q: What about the TGI (UO-31 renal) of the same molecule?
A: The TGI was 25.3 µM.

Q: And the TGI (SK-MEL-28 melanoma)?
A: The TGI was 50 µM and 35.5 µM.

Q: What about the GI50 (SR leukemia) of the same molecule?
A: Its GI50 is 6.41 µM.

Q: And the TGI (SR leukemia)?
A: Its TGI is 18.8 µM and 24.9 µM.

Q: And the TGI (HCC-2998 colon)?
A: Its TGI is 32.7 µM.

Q: And the GI50 (HCT-15 colon)?
A: The GI50 was 18 µM.

Q: And the TGI (HCT-15 colon)?
A: Its TGI is 50 µM and 39.9 µM.

Q: What about the GI50 (TK-10 renal) of the same molecule?
A: Its GI50 is 18.2 µM.

Q: And the TGI (TK-10 renal)?
A: The TGI was 50 µM and 32.7 µM.

Q: What about the GI50 (MDA-MB-435) of the same molecule?
A: The GI50 was 15.1 µM.

Q: What about the TGI (MDA-MB-435) of the same molecule?
A: Its TGI is 38.4 µM and 29.6 µM.

Q: What about the GI50 (SK-OV-3 ovarian) of the same molecule?
A: Its GI50 is 16.9 µM.

Q: And the TGI (SK-OV-3 ovarian)?
A: The TGI was 50 µM and 33.4 µM.

Q: What about the GI50 (IGROV1 ovarian) of the same molecule?
A: Its GI50 is 16.4 µM.

Q: And the TGI (IGROV1 ovarian)?
A: Its TGI is 43.1 µM and 33.7 µM.

Q: What about the GI50 (HT29 colon) of the same molecule?
A: The GI50 was 16.2 µM.

Q: What about the TGI (HT29 colon) of the same molecule?
A: Its TGI is 50 µM and 31.1 µM.

Q: What about the TGI (CAKI-1 renal) of the same molecule?
A: The TGI was 50 µM and 31.9 µM.

Q: And the TGI (A498 renal)?
A: The TGI was 32.8 µM.

Q: And the GI50 (NCI-H460 lung)?
A: Its GI50 is 18.3 µM.

Q: And the TGI (NCI-H460 lung)?
A: The TGI was 39.9 µM and 32.3 µM.

Q: And the GI50 (MALME-3M melanoma)?
A: Its GI50 is 16.2 µM.

Q: And the TGI (MALME-3M melanoma)?
A: Its TGI is 32.7 µM and 34 µM.

Q: And the GI50 (SN12C renal)?
A: Its GI50 is 13.1 µM.

Q: And the TGI (SN12C renal)?
A: Its TGI is 50 µM and 26 µM.

Q: What about the GI50 (COLO 205 colon) of the same molecule?
A: Its GI50 is 18.1 µM.

Q: And the TGI (COLO 205 colon)?
A: The TGI was > 50 µM and 32.9 µM.

Q: And the TGI (EKVX NSCLC)?
A: The TGI was 41.5 µM and 30.3 µM.

Q: And the TGI (A549 NSCLC)?
A: Its TGI is 50 µM and 27.1 µM.

Q: And the GI50 (UACC-257 melanoma)?
A: The GI50 was 19.2 µM.

Q: And the TGI (UACC-257 melanoma)?
A: Its TGI is 50 µM and 37.3 µM.

Q: What about the GI50 (OVCAR-5 ovarian) of the same molecule?
A: The GI50 was 14.4 µM.

Q: What about the TGI (OVCAR-5 ovarian) of the same molecule?
A: Its TGI is > 50 µM and 27.7 µM.

Q: And the GI50 (RPMI-8226 leukemia)?
A: Its GI50 is 19.4 µM.

Q: And the TGI (RPMI-8226 leukemia)?
A: The TGI was 17.4 µM and 45.8 µM.

Q: What about the TGI (SF-295 CNS) of the same molecule?
A: Its TGI is 50 µM and 35.1 µM.

Q: What about the GI50 (SNB-75 CNS) of the same molecule?
A: Its GI50 is 18.4 µM.

Q: What about the TGI (SNB-75 CNS) of the same molecule?
A: Its TGI is 50 µM and 34.5 µM.

Q: What about the GI50 (HOP-62 NSCLC) of the same molecule?
A: The GI50 was 17.6 µM.

Q: What about the TGI (HOP-62 NSCLC) of the same molecule?
A: Its TGI is 50 µM and 33.6 µM.

Q: What about the GI50 (CCRF-CEM leukemia) of the same molecule?
A: Its GI50 is 0.0496 µM.

Q: And the TGI (CCRF-CEM leukemia)?
A: The TGI was 40.2 µM and 20.8 µM.

Q: What about the GI50 (K-562 leukemia) of the same molecule?
A: The GI50 was 12.7 µM.

Q: What about the TGI (K-562 leukemia) of the same molecule?
A: The TGI was 50 µM and 39 µM.

Q: And the TGI (PC-3 prostate)?
A: The TGI was 27.7 µM.

Q: And the GI50 (786-0 renal)?
A: Its GI50 is 13.6 µM.

Q: And the TGI (786-0 renal)?
A: Its TGI is 50 µM and 26.5 µM.

Q: And the GI50 (SNB-19 CNS)?
A: Its GI50 is 15.8 µM.

Q: And the TGI (SNB-19 CNS)?
A: Its TGI is 50 µM and 29.6 µM.

Q: What about the GI50 (LOX IMVI melanoma) of the same molecule?
A: The GI50 was 17.9 µM.

Q: What about the TGI (LOX IMVI melanoma) of the same molecule?
A: Its TGI is 30.7 µM and 40.9 µM.

Q: What about the GI50 (NCI-H23 lung) of the same molecule?
A: Its GI50 is 21.2 µM.

Q: And the TGI (NCI-H23 lung)?
A: Its TGI is 50 µM and 44.4 µM.

Q: What about the TGI (MDA-MB-231 breast) of the same molecule?
A: The TGI was 50 µM.

Q: What about the TGI (SW-620 colon) of the same molecule?
A: Its TGI is 50 µM and 35 µM.

Q: What about the TGI (M14 melanoma) of the same molecule?
A: Its TGI is 47.5 µM and 30.2 µM.

Q: And the GI50 (KM12 colon)?
A: Its GI50 is 17.6 µM.

Q: And the TGI (KM12 colon)?
A: The TGI was 50 µM and 33.8 µM.
